Measured values taken from patent US7432260B2, “Pyrimidine compounds” (Cyclacel Limted, priority 2002, dated 2008).

Tests used:
CDK4/cyclin D1 = CDK4/cyclin D1 (Homo sapiens, UniProt P11802); assay: Kinase assay CDK4/cyclin D1; format: biochemical; settings: Table 2; read-out: Kinase Inhibition IC50 CDK4 cyclin D1
Description: (§1) Kinase assays. […] This was achieved by measurement of incorporation of radioactive phosphate from ATP into appropriate polypeptide substrates. Recombinant protein kinases and kinase complexes were produced or obtained commercially. Assays were performed using 96-well plates and appropriate assay buffers (typically 25 mM β-glycerophosphate, 20 mM MOPS, 5 mM EGTA, 1 mM DTT, 1 mM […], pH 7.4), into which were added 2-4 μg of active enzyme with appropriate substrates. The reactions were initiated by addition of Mg/ATP mix (15 mM MgCl2+100 μM ATP with 30-50 kBq per well of [γ-^32P]-ATP) and mixtures incubated as required at 30° C. Reactions were stopped on ice, followed by filtration through p81 filterplates or GF/C filterplates (Whatman Polyfiltronics, Kent, UK). After washing 3 times with 75 mM aq orthophosphoric acid, plates were dried, scintillant added and incorporated radioactivity measured in a scintillation counter (TopCount, Packard Instruments, Pangbourne, Berks, UK). Compounds for kinase assay were made-up as 10 mM stocks in DMSO and diluted into 10% DMSO inrassay buffer.

CDK1/cyclin B = CDK1/cyclin B (Homo sapiens, UniProt P06493); assay: Kinase assay CDK1/cyclin B; format: biochemical; settings: Table 2; read-out: Kinase Inhibition IC50 CDK1 cyclin B
Description: as §1

CDK7/cyclin H = CDK7/cyclin H (Homo sapiens, UniProt P50613); assay: CDK7 assay; format: biochemical; settings: Table 2; read-out: Kinase Inhibition IC50 CDK7 cyclin H
Description: as §1
(§2) CDK 7 and 9 assays. CTD peptide substrate (biotinyl-Ahx-(Tyr-Ser-Pro-Thr-Ser-Pro-Ser)4-NH2; 1-2 mg/mL) and recombinant human CDK7/cyclin H, CDK9/cyclin T1, or CDK9/cyclin K (0.5-2 μg) were incubated for 45 min at 30° C. in the presence of varying amounts of test compound in 20 mM MOPS pH 7.2, 25 mM β-glycerophosphate, 5 mM EGTA, 1 mM DTT, 1 mM sodium vanadate, 15 mM MgCl2, and 100 μM ATP (containing a trace amount of ^32PγATP) in a total volume of 25 μL in a 96-well microtiter plate. The reaction was stopped by placing the plate on ice for 2 min. Avidin (50 μg) was added to each well, and the plate was incubated at room temp for 30 min. The samples were transferred to a 96-well P81 filter plate, and washed (4×200 μL per well) with 75 mM phosphoric acid. Microscint 40 scintillation liquid (50 μL) was added to each well, and the amount of ^32P incorporation for each sample was measured using a Packard Topcount microplate scintillation counter.

GSK-3β = GSK-3β (Homo sapiens, UniProt P49841); assay: Kinase assay GSK-3β; format: biochemical; settings: Table 2; read-out: Kinase Inhibition IC50 GSK-3β
Description: as §1

A549 = assay: 72-h MTT cytotoxicity assay A549; format: cell-based; settings: Homo sapiens, A549, 72 h, Table 4
Description: (§3) MTT cytotoxicity assay. […] Standard 72-h MTT (thiazolyl blue; 3-[4,5-dimethylthiazol-2-yl]-2,5-diphenyltetrazolium bromide) assays were performed (Haselsberger, K.; Peterson, D. C.; Thomas, D. G.; Darling, J. L. Anti Cancer Drugs 1996, 7, 331-8; Loveland, B. E.; Johns, T. G.; Mackay, I. R.; Vaillant, F.; Wang, Z. X.; Hertzog, P. J. Biochemistry International 1992, 27, 501-10). In short: cells were seeded into 96-well plates according to doubling time and incubated overnight at 37° C. Test compounds were made up in DMSO and a 1/3 dilution series prepared in 100 μL cell media, added to cells (in triplicates) and incubated for 72 ho at 37° C. MTT was made up as a stock of 5 mg/mL in cell media and filter-sterilised. Media was removed from cells followed by a wash with 200 μL PBS.
(§4) MTT solution was then added at 20 μL per well and incubated in the dark at 37° C. for 4 h. MTT solution was removed and cells again washed with 200 μL PBS. MTT dye was solubilised with 200 μL per well of DMSO with agitation.

Saos-2 = assay: 72-h MTT cytotoxicity assay Saos-2; format: cell-based; settings: Homo sapiens, SAOS-2, 72 h, Table 4
Description: as §3, §4

CDK2/cyclin E = CDK2/cyclin E (Homo sapiens, UniProt P24941); assay: Kinase assay CDK2/cyclin E; format: biochemical; settings: Table 2; read-out: Kinase Inhibition IC50 CDK2 cyclin E
Description: as §1

CDK2/cyclin A = CDK2/cyclin A (Homo sapiens, UniProt P24941); assay: Kinase assay CDK2/cyclin A; format: biochemical; settings: Table 2; read-out: Kinase Inhibition IC50 CDK2 cyclin A
Description: as §1

CDK9/cyclin T1 = CDK9/cyclin T1 (Homo sapiens, UniProt P50750); assay: CDK9 assay; format: biochemical; settings: Table 2; read-out: Kinase Inhibition IC50 CDK9 cyclin T1
Description: as §1, §2

HT29 = assay: 72-h MTT cytotoxicity assay HT29; format: cell-based; settings: Homo sapiens, HT-29, 72 h, Table 4
Description: as §3, §4

PLK-1 = PLK-1 (Homo sapiens, UniProt P53350); assay: Kinase assay PLK-1; format: biochemical; settings: Table 2; read-out: Kinase Inhibition IC50 PLK-1
Description: as §1

Chain of CDK9/cyclin T1 (P50750 whole entry): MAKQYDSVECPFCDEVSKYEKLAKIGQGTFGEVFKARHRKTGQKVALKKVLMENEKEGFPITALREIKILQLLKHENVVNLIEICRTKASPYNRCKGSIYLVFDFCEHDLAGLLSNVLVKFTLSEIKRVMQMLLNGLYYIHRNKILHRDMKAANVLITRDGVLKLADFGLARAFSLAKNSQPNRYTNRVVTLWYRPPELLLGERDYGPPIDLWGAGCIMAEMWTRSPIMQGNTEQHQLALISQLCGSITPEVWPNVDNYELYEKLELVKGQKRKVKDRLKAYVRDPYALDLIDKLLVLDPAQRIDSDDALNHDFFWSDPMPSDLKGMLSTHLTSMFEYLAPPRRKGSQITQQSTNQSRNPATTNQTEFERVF
Chain of CDK9/cyclin T1 (O60563 whole entry partner): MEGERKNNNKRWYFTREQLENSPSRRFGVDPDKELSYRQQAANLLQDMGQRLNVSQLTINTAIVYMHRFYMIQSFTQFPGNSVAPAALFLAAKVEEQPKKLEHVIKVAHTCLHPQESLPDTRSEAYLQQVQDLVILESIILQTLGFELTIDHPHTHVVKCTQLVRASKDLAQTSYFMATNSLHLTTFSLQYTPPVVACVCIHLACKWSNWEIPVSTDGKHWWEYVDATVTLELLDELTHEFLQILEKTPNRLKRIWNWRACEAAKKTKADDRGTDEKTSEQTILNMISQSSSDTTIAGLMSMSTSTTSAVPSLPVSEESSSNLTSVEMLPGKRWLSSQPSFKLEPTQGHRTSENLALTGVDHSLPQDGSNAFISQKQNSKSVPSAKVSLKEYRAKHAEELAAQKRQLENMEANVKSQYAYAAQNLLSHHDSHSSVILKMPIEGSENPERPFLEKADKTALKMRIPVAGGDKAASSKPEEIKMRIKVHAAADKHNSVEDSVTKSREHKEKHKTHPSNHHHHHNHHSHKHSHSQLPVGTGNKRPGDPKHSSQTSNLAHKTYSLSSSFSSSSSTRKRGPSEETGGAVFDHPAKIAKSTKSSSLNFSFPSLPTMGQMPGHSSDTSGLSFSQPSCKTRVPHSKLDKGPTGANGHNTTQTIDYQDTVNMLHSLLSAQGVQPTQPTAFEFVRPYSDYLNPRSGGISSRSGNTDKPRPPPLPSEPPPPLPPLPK
Chain of CDK1/cyclin B (P06493 whole entry): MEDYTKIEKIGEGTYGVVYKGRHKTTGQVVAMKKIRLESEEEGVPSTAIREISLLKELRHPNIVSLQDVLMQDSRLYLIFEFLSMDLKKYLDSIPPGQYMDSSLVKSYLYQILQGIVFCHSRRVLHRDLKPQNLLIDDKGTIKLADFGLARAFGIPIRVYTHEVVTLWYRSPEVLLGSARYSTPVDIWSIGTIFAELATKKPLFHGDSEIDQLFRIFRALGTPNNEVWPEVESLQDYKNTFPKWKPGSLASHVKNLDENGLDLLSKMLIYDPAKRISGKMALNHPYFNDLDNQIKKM
Chain of CDK1/cyclin B (P14635 whole entry partner): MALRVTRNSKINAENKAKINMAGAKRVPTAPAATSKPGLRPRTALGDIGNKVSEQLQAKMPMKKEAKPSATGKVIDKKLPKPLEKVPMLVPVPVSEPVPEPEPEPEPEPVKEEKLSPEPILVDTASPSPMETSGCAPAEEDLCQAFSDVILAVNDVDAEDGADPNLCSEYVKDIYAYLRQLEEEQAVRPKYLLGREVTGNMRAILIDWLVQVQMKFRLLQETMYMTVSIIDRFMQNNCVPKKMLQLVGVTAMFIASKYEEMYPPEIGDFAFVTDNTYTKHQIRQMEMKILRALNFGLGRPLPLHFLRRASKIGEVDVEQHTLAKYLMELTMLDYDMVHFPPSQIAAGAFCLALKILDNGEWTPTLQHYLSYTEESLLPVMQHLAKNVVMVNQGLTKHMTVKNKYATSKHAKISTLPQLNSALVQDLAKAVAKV
Chain of GSK-3β (P49841 whole entry): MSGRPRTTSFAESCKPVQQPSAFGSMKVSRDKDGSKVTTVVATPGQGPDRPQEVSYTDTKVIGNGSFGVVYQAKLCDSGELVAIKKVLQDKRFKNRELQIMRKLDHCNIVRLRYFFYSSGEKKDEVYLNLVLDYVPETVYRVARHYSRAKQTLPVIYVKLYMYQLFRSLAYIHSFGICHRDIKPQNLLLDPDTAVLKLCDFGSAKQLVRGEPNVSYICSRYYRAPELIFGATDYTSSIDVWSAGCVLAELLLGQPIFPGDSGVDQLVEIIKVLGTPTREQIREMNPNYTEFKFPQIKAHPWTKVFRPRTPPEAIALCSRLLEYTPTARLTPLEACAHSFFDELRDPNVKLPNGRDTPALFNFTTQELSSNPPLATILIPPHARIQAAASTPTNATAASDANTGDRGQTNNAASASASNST
Chain of PLK-1 (P53350 whole entry): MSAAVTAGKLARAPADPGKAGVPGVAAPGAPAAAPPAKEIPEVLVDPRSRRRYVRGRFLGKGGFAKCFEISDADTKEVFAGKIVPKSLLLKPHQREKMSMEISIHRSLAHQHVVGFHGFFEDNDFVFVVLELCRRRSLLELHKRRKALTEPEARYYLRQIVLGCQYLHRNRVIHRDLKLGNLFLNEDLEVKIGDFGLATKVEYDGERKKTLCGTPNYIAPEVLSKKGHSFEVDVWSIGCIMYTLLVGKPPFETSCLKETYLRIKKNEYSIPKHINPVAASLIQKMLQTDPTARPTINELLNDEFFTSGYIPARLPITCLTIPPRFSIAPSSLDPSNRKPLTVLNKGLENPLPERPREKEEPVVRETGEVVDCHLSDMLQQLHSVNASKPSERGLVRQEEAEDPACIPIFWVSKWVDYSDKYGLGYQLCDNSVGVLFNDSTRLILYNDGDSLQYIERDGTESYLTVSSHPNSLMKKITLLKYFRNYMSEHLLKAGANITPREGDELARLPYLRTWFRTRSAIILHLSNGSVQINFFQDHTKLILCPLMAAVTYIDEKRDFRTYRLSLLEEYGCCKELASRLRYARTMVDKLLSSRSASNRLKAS
Chain of CDK4/cyclin D1 (P11802 whole entry): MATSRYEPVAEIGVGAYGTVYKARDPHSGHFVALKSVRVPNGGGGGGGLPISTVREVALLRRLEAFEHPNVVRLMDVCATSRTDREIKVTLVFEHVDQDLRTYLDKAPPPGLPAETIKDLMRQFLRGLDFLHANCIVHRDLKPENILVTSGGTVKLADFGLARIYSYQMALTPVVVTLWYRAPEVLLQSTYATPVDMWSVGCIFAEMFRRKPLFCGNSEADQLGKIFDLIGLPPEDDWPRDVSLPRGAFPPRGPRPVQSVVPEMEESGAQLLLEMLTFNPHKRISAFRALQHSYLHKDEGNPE
Chain of CDK4/cyclin D1 (P24385 whole entry partner): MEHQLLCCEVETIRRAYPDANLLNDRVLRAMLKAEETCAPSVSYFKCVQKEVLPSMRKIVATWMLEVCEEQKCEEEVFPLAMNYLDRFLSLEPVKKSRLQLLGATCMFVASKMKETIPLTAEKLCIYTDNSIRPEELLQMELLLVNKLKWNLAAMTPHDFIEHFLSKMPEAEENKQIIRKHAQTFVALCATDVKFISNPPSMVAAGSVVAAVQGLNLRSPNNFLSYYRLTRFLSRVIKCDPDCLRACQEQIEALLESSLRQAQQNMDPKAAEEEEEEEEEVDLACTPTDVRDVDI
Chain of CDK7/cyclin H (P50613 whole entry): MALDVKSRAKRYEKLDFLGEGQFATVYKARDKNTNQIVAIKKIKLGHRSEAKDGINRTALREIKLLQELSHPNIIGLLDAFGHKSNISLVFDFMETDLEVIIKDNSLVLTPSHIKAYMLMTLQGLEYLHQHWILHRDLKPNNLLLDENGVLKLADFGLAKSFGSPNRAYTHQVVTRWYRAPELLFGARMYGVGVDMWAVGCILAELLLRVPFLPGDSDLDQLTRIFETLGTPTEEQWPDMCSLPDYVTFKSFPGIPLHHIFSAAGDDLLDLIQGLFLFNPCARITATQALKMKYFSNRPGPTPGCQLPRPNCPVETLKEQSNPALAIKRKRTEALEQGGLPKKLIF

SMILES	IC50 (CDK4/cyclin D1) [nM]	IC50 (CDK1/cyclin B) [nM]	IC50 (CDK7/cyclin H) [nM]	IC50 (GSK-3β) [nM]	IC50 (A549) [nM]	IC50 (Saos-2) [nM]	IC50 (CDK2/cyclin E) [nM]	IC50 (CDK2/cyclin A) [nM]	IC50 (CDK9/cyclin T1) [nM]	IC50 (HT29) [nM]	IC50 (PLK-1) [nM]
Cc1nc(C)c(-c2ccnc(Nc3ccc(N4CCN(C)CC4)cc3)n2)s1 [Compound 12, [4-(2,4-Dimethyl-thiazol-5-yl)-pyrimidin-2-yl]-[4-(4-methyl-piperazin-1-yl)-phenyl]-amine]	190	4200	1100	53000	710	430	1800	1000	280	740	55000
Cc1nc(N2CCOCC2)sc1-c1ccnc(Nc2ccc(N(C)C)cc2)n1 [Compound 57, N,N-Dimethyl-N′-[4-(4-methyl-2-morpholin-4-yl-thiazol-5-yl)-pyrimidin-2-yl]-benzene-1,4-diamine]	71	7700	190	74000	2700	3800	350	73000	12000	240	
CNc1nc(C)c(-c2ccnc(Nc3ccc(OCCOC)c([N+](=O)[O-])c3)n2)s1 [Compound 77, [4-(2-Methoxy-ethoxy)-3-nitro-phenyl]-[4-(4-methyl-2-methylamino-thiazol-5-yl)-pyrimidin-2-yl]-amine]	3400	72000	1000	6100	310	350	150	1000	260	210	
Cc1nc(C)c(-c2ccnc(Nc3ccc(NC(=O)Cn4ccnc4)cc3)n2)s1 [Compound 54, N-{4-[4-(2,4-Dimethyl-thiazol-5-yl)-pyrimidin-2-ylamino]-phenyl}-2-imidazol-1-yl-acetamide]	32	1300	2100	19000	2900	1900	98	57000	110	2700	
CNc1nc(C)c(-c2ccnc(Nc3ccc(Cl)c(CO)c3)n2)s1 [Compound 73, {2-Chloro-5-[4-(4-methyl-2-methylamino-thiazo1-5-yl)-pyrimidin-2-ylamino]-phenyl}-methanol]	230	1700	2000	5200	1500	2900	1000	1300	550	5500	
Cc1nc(C)c(-c2ccnc(Nc3ccc(Cl)c(CO)c3)n2)s1 [Compound 72, {2-Chloro-5-[4-(2,4-dimethyl-thiazol-5-yl)-pyrimidin-2-ylamino]-phenyl}-methanol]	25000	62000	9600	48000	32000	18000	730	12000	4100	20000	
Cc1nc(N2CCOCC2)sc1-c1ccnc(Nc2cccc([N+](=O)[O-])c2)n1 [Compound 71, [4-(4-Methyl-2-morpholin-4-yl-thiazol-5-yl)-pyrimidin-2-yl]-(3-nitro-phenyl)-amine]		330	2400	2400	80000	10000	220	6	4200	71000	
Cc1nc(NS(C)(=O)=O)sc1-c1ccnc(Nc2cccc([N+](=O)[O-])c2)n1 [Compound 32, N-{4-Methyl-5-[2-(3-nitro-phenylamino)-pyrimidin-4-yl]-thiazol-2-yl}-methanesulfonamide]	1100			210	100	160	5		1.4	170	
CC(=O)N1CCN(c2ccc(Nc3nccc(-c4sc(C)nc4C)n3)cc2)CC1 [Compound 5, 1-(4-{4-[4-(2,4-Dimethyl-thiazol-5-yl)-pyrimidin-2-ylamino]-phenyl}-piperazin-1-yl)-ethanone]	1700	5600	5600	21000	3800	3900			6100	2200	35000
CNc1nc(C)c(-c2ccnc(Nc3ccc(N4CCN(C(C)=O)CC4)cc3)n2)s1 [Compound 61, 1-(4-{4-[4-(4-Methyl-2-methylamino-thiazol-5-yl)-pyrimidin-2-ylamino]-phenyl}-piperazin-1-yl)-ethanone]	42	2500	2300	6800	720	1000			1500	530	
Cc1nc(C)c(-c2ccnc(Nc3ccc(N4CCOCC4)cc3)n2)s1 [Compound 2, [4-(2,4-Dimethyl-thiazol-5-yl)-pyrimidin-2-yl]-(4-morpholin-4-yl-phenyl)-amine]	3900	75000	97000	> 100000	3500	4800			23000	3300	> 100000
Cc1nc(NC(=O)CCl)sc1-c1ccnc(Nc2cccc(Cl)c2)n1 [Compound 25, 2-Chloro-N-{5-[2-(3-chloro-phenylamino)-pyrimidin-4-yl]-4-methyl-thiazol-2-yl}-acetamide]	970	9400	3200	83	970	1600	220	3000	680	1300	
Cc1c(-c2ccnc(Nc3ccc(N4CCN(C)CC4)cc3)n2)sc(=O)n1C [Compound 93, 3,4-Dimethyl-5-{2-[4-(4-methyl-piperazin-1-yl)-phenylamino]-pyrimidin-4-yl}-3H-thiazol-2-one]	510	4400	360	430			840	1100	300		
Cc1nc(N2CCOCC2)sc1-c1ccnc(Nc2cccc(O)c2)n1 [Compound 55, 3-[4-(4-Methyl-2-morpholin-4-yl-thiazol-5-yl)-pyrimidin-2-ylamino]-phenol]	1000	2400	2200	67000	2300	1400	79	61000	2100	5100	
